The source of these data is US10252989B2, “Picolinamides with fungicidal activity” (DOW AGROSCIENCES LLC, priority 2014, dated 2019).

For one experiment, the system named is Puccinia triticina. In words: Fungicidal activity: wheat brown rust (PUCCRT), disease control on wheat seedlings. In kind it is in vivo. The conditions noted are these: Low-volume cereal activity at 121.5 g/H. Here is the method: All fungicides were evaluated using the aforementioned method for their activity vs. all target diseases. Wheat leaf blotch and brown rust activity were also evaluated using track spray applications, in which case the fungicides were formulated as EC formulations, containing 0.1% Trycol 5941 in the spray solutions. Wheat plants (variety Yuma) were grown from seed in a greenhouse in 50% mineral soil/50% soil-less Metro mix until the first leaf was fully emerged, with 7-10 seedlings per pot. These plants were inoculated with an aqueous spore suspension of Zymoseptoria tritici either prior to or after fungicide treatments. After inoculation the plants were kept in 100% relative humidity (one day in a dark dew chamber followed by two to three days in a lighted dew chamber at 20° C.) to permit spores to germinate and infect the leaf. The plants were then transferred to a greenhouse set at 20° C. for disease to develop. When disease symptoms were fully expressed on the 1st leaves of untreated plants, infection levels were assessed on a scale of 0 to 100 percent disease severity. Percent disease control was calculated using the ratio of disease severity on treated plants relative to untreated plants. Example B: Evaluation of Fungicidal Activity: Wheat Brown Rust (Puccinia triticina; Synonym: Puccinia recondita f. sp. tritici; Bayer code PUCCRT) Wheat plants (variety Yuma) were grown from seed in a greenhouse in 50% mineral soil/50% soil-less Metro mix until the first leaf was fully emerged, with 7-10 seedlings per pot. These plants were inoculated with an aqueous spore suspension of Puccinia triticina either prior to or after fungicide treatments. […] The plants were then transferred to a greenhouse set at 24° C. for disease to develop. Fungicide formulation, application and disease assessment followed the procedures as described in the Example A.

For the next experiment, the system named is Zymoseptoria tritici. Briefly: Fungicidal activity: leaf blotch of wheat (SEPTTR), disease control on wheat seedlings. In kind it is in vivo. The conditions noted are these: for pest or weed control at 121.5 g/ha: Low-volume cereal activity at 121.5 g/H, wheat leaf blotch. Here is the method: All fungicides were evaluated using the aforementioned method for their activity vs. all target diseases. Wheat leaf blotch and brown rust activity were also evaluated using track spray applications, in which case the fungicides were formulated as EC formulations, containing 0.1% Trycol 5941 in the spray solutions. Wheat plants (variety Yuma) were grown from seed in a greenhouse in 50% mineral soil/50% soil-less Metro mix until the first leaf was fully emerged, with 7-10 seedlings per pot. These plants were inoculated with an aqueous spore suspension of Zymoseptoria tritici either prior to or after fungicide treatments. After inoculation the plants were kept in 100% relative humidity (one day in a dark dew chamber followed by two to three days in a lighted dew chamber at 20° C.) to permit spores to germinate and infect the leaf. The plants were then transferred to a greenhouse set at 20° C. for disease to develop. When disease symptoms were fully expressed on the 1st leaves of untreated plants, infection levels were assessed on a scale of 0 to 100 percent disease severity. Percent disease control was calculated using the ratio of disease severity on treated plants relative to untreated plants.

Where [1] appears, read: 24 h, 1 Day Protectant, read-out: PUCCRT 1DP disease control rating.
The mark [2] stands for this setting: 72 h, 3 Day Curative, read-out: PUCCRT 3DC disease control rating.
The mark [3] stands for this setting: 24 h, 1 Day Protectant, read-out: SEPTTR 1DP disease control rating.
The mark [4] stands for this setting: 72 h, 3 Day Curative, read-out: SEPTTR 3DC disease control rating.

SMILES strings stand for the structures. Read-outs that look alike come from different tables or passages of the source.

On to `CC[C@H](NC(=O)c1nccc(OC)c1OC(C)=O)C(=O)O[C@@H](C)C(Cc1ccc(OC)cc1)Cc1ccc(OC)cc1` [Compound 273], for which the pest or weed control at 121.5 g/ha with Puccinia triticina (setting [1]) fell in the range of 0 to 80%; with Puccinia triticina (setting [2]), 0 to 80%; in the experiment on Zymoseptoria tritici (setting [3]), 80 to 100%; with Zymoseptoria tritici (setting [4]), 0 to 80%.

Consider `COc1ccnc(C(=O)N[C@@H](C)C(=O)O[C@@H](C)[C@H](Cc2ccccc2)c2ccccc2)c1O` [Compound 119], for which the pest or weed control at 100 ppm in the experiment on Zymoseptoria tritici (72 h, High-volume cereal activity at 100 ppm, 3 Day Curative, wheat seedlings, read-out: SEPTTR 3DC disease control rating) was in the range of 0 to 80%.

For `CCCC[C@@H]([C@H](C)OC(=O)[C@H](C)NC(=O)c1nccc(OC)c1OC(C)=O)[C@@H](CC)Oc1ccccc1` [Compound 190], the pest or weed control at 121.5 g/ha in the experiment on Puccinia triticina (setting [1]), with Puccinia triticina (setting [2]), with Zymoseptoria tritici (setting [3]) and in the experiment on Zymoseptoria tritici (setting [4]) was 80 to 100% throughout.
